Assay results published in paper PMC11878259 (2025).

How the values were obtained:
[1] = system: U50G, C52A, A66U (eBroccoli) (RNA, aptamer) GCCCGGAUAGCUCAGUCGGUAGAGCAGCGGAGACGGUCGGGUCCAGAUAGUAGUAUCUGUCGAGUUGAGUGUGGGCUCCGCGGGUCCAGGGUUCAAGUCCCUGUUCGGGCGCCA; assay: fluorescence light-up, microplate; conditions: 0.5 mM K+, 10 mM Na+, 0.2 mM Mg2+, 0.1 mM Ca2+; 20 mM Tris pH 7.5; 25, 37, 45 °C; 0.5 µM RNA, 10 µM compound
[2] = system: Cy5-labeled Broccoli (RNA, aptamer) GCCCGGAUAGCUCAGUCGGUAGAGCAGCGGAGACGGUCGGGUCCAGAUAUUCGUAUCUGUCGAGUAGAGUGUGGGCUCCGCGGGUCCAGGGUUCAAGUCCCUGUUCGGGCGCCA; assay: fluorescence imaging in RNA-peptide condensates; conditions: 100 mM K+, 1 mM Mg2+; 40 mM Tris pH 7.5, room temperature; 5 µM RNA; rU22 or rA22 with [RGRGG]5 or R10
[3] = system: Cy5-labeled eBroccoli (RNA, aptamer) GCCCGGAUAGCUCAGUCGGUAGAGCAGCGGAGACGGUCGGGUCCAGAUAGUAGUAUCUGUCGAGUUGAGUGUGGGCUCCGCGGGUCCAGGGUUCAAGUCCCUGUUCGGGCGCCA; assay: fluorescence imaging in RNA-peptide condensates; conditions: 100 mM K+, 1 mM Mg2+; 40 mM Tris pH 7.5, room temperature; 5 µM RNA; rU22 or rA22 with [RGRGG]5 or R10

binding [1]: yes
binding [2]: yes
binding [3]: yes
Structure (SMILES): CC1=N/C(=C\c2cc(F)c(O)c(F)c2)C(=O)N1CC(F)(F)F
